Laboratory results reported in ChEMBL document CHEMBL1201862, “PubChem BioAssay data set” (2004).
Activity calls are given as the source filed them.

Legend:
Cytochrome P450 2C19 = Cytochrome P450 2C19 (Homo sapiens, UniProt P33261); assay: Cytochrome panel assay with activity outcomes. Panel member name: p450-cyp2c19 Compounds with AC50 equal or less than 10 uM are considered active; assay type: functional; conditions: read-out: AC50
[1] = biological target: Voltage-gated inwardly rectifying potassium channel KCNH2 (Homo sapiens, UniProt Q12809); conditions: Potency;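 also: confirmatory quantitative high-throughput screen measuring inhibition of hERG channel activity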
Cytochrome P450 2D6 = Cytochrome P450 2D6 (Homo sapiens, UniProt P10635);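 also: CYP2D6 member of a cytochrome P450 panel assay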
Cytochrome P450 3A4 = Cytochrome P450 3A4 (Homo sapiens, UniProt P08684); conditions: Potency;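 also: confirmatory qHTS run detecting inhibitors and substrates of CYP3A4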
Phospholipase D2 = Phospholipase D2 (Homo sapiens, UniProt O14939); assay: PLD2 inhibitor potency in cells, dose response (AID 602147); assay type: functional;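 also: cellular assay in HEK293 cells overexpressing GFP-tagged PLD2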
Phospholipase D1 = Phospholipase D1 (Homo sapiens, UniProt Q13393); assay: PLD1 inhibitor potency in cells, dose response (AID 602151); assay type: functional;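 also: cellular PLD1 assay in Calu-1 cells stimulated with PMA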
[2] = biological target: T1, Microphthalmia-associated transcription factor (Homo sapiens, UniProt O75030); assay: TRPM1 promoter luciferase signal decrease, dose response, MITF inhibitor project, cell-based, SK-MEL-5, cherry-picked, set 3 (AID 493073); assay type: functional
T1 sequence (O75030 whole entry): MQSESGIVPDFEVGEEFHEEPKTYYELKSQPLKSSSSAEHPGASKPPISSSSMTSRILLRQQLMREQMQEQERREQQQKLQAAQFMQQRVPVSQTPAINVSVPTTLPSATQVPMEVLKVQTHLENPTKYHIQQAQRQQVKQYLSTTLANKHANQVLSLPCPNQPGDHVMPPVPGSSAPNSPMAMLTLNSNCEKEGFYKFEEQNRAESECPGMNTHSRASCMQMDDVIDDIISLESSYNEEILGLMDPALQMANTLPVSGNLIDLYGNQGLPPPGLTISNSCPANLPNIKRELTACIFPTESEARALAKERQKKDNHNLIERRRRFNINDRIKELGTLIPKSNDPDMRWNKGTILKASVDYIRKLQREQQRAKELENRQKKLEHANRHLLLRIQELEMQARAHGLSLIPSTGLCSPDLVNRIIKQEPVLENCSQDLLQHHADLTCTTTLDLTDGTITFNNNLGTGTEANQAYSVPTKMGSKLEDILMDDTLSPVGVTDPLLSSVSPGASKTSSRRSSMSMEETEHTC

[3] = cytotoxicity in HEK-293T cells, dose response, cytotoxicity control for TCR NF-kB inhibitor project, luminescence, T-cell screen hits (AID 489026); assay type: functional, cell-based;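 also: cells exposed to compound about 14 hours before the viability readout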
[4] = biological target: T2, COUP transcription factor 2 (Homo sapiens, UniProt P24468); assay: Luminescence-based cell-based high throughput dose response assay to identify inhibitors of COUP-TFII (NR2F2).; assay type: functional;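 also: HEK293 cells transiently cotransfected with COUP-TFII expression vector and reporter; luciferase reporter luminescence driven by COUP-TFII from the pX2-168 reporter plasmid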
T2 sequence (P24468 whole entry): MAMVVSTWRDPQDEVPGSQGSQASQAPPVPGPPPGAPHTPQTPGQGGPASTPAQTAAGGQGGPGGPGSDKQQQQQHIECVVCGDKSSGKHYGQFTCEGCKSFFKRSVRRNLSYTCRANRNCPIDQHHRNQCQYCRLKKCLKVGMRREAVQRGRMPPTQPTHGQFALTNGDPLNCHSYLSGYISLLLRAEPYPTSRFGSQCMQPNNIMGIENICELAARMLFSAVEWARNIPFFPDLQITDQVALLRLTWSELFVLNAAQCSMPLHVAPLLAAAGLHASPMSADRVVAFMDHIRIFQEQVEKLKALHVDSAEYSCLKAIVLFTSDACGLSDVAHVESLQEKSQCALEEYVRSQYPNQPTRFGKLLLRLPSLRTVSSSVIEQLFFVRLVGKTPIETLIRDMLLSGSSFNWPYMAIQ

[5] = inhibitors of intracellular T. cruzi replication, confirmation, NIH3T3 host cells, beta-gal luminescence (AID 2044); assay type: functional, cell-based;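 also: intracellular parasites grown in NIH/3T3 mouse fibroblasts as host cells; luminescent beta-galactosidase reporter signal from transgenic T. cruzi replicating inside host cells; inhibitors lower the luminescence signal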
[6] = biological target: ATP-dependent molecular chaperone HSP82 (Candida albicans (strain WO-1) (Yeast), UniProt C4YTQ8); assay: loss of DOC-induced GRE-beta-galactosidase reporter signal, dose response, Hsp90 inhibitor project, S. cerevisiae, luminescence (AID 2400); assay type: functional, cell-based;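 also: beta-galactosidase luminescence from glucocorticoid response element reporter as proxy for Hsp90 function; inhibitor potency where signal loss means Hsp90 inhibition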
[7] = C. albicans growth with fluconazole, confirmation, fluorescence, retest (AID 2467); assay type: functional, cell-based
INS1 = assay: beta cell apoptosis inhibitors, cytokine rescue, dose response, luminescence, retest (AID 449756); assay type: functional, cell-based; conditions: Rattus norvegicus;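 also: cell death triggered by IL-1 beta plus TNF-alpha plus IFN-gamma mixture; protective hits raise ATP signal compared with cytokine alone wells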
[8] = NIH-3T3 fibroblast cytotoxicity, dose response, cytotoxicity control, cell-based, fluorescence, Alamar Blue, secondary assay (AID 2327); assay type: functional;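 also: NIH-3T3 mouse fibroblasts cultured with fluconazole at 8 µg/mL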
[9] = cytotoxicity toward NIH3T3 fibroblasts, dose response, counter-screen, cell-based, ATP luminescence, mouse fibroblasts (AID 2010); assay type: functional;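 also: cells exposed to compound for about 90 hours before reading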
[10] = biological target: Serine/threonine-protein phosphatase (Candida dubliniensis (strain CD36 / CBS 7987 / NCPF 3949 / NRRLY-17841) (Yeast), UniProt B9W6M3); assay: calcineurin pathway inhibitors in yeast reporter, dose response, S. cerevisiae, CDRE-lacZ, luminescence, secondary (AID 2388); assay type: functional, cell-based;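 also: yeast reporter cells carrying a calcineurin-responsive lacZ construct stimulated with calcium chloride; luminescent beta-galactosidase reporter signal in whole cells rather than isolated phosphatase activity; potency for inhibition where a drop in reporter signal means calcineurin blockade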
Chain of Serine/threonine-protein phosphatase (B9W6M3 whole entry): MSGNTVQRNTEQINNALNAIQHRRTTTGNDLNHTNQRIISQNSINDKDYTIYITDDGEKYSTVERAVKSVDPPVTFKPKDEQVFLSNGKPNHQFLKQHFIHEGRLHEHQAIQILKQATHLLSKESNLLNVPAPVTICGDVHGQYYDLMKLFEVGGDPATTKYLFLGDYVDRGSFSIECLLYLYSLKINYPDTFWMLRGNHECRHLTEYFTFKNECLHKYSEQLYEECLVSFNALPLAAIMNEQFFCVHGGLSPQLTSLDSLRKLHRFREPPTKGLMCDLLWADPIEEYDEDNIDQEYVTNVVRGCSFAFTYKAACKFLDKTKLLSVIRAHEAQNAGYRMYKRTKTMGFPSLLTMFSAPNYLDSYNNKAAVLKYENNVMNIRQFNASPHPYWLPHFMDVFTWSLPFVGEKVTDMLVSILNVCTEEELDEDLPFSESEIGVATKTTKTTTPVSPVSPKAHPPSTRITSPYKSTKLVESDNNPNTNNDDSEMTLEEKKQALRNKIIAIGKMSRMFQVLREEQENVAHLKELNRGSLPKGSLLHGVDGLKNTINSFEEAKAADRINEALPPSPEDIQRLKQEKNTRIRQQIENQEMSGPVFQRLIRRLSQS

Chain of Voltage-gated inwardly rectifying potassium channel KCNH2 (Q12809 whole entry): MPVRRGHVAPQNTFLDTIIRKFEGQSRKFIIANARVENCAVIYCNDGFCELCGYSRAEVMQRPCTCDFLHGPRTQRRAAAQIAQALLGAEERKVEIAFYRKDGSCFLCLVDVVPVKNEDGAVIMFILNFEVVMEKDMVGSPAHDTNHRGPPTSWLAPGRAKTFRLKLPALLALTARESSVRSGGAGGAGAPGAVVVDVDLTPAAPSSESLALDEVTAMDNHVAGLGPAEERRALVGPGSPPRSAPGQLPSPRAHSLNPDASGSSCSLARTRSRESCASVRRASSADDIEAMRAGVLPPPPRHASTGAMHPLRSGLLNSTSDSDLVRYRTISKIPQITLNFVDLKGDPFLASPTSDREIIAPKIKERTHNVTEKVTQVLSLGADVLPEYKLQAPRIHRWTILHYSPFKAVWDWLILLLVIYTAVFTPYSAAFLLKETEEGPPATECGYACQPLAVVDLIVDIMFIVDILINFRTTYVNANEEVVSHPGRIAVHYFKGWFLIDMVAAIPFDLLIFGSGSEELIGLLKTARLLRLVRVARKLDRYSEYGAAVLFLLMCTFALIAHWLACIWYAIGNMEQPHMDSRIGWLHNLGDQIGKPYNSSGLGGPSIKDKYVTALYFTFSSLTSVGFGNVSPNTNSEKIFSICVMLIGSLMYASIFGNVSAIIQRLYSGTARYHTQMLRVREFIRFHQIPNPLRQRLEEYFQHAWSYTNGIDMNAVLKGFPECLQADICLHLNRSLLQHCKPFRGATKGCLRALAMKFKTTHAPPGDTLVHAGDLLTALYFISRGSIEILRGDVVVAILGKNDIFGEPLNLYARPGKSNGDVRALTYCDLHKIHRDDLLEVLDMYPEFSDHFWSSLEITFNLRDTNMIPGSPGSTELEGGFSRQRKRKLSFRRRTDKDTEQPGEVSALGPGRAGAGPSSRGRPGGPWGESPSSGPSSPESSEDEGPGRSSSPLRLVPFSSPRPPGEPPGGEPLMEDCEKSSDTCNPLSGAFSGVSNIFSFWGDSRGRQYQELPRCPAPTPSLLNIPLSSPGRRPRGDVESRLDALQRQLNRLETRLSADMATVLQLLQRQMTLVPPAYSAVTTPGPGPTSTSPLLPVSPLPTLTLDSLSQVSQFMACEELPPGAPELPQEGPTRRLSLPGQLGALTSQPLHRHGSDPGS
Chain of Cytochrome P450 3A4 (P08684 whole entry): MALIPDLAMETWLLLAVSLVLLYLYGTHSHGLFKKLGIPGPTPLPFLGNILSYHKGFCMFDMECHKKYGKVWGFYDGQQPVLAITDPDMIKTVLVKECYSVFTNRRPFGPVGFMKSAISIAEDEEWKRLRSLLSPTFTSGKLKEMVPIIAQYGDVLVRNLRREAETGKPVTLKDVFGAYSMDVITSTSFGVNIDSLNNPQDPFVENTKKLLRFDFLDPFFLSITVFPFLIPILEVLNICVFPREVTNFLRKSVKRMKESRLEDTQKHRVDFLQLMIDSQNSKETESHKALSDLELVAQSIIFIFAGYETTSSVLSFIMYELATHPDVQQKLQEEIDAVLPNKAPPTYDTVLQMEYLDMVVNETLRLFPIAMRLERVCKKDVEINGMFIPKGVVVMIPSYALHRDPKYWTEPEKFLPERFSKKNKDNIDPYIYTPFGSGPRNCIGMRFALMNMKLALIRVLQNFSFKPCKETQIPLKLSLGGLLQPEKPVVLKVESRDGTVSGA
Chain of Cytochrome P450 2D6 (P10635 whole entry): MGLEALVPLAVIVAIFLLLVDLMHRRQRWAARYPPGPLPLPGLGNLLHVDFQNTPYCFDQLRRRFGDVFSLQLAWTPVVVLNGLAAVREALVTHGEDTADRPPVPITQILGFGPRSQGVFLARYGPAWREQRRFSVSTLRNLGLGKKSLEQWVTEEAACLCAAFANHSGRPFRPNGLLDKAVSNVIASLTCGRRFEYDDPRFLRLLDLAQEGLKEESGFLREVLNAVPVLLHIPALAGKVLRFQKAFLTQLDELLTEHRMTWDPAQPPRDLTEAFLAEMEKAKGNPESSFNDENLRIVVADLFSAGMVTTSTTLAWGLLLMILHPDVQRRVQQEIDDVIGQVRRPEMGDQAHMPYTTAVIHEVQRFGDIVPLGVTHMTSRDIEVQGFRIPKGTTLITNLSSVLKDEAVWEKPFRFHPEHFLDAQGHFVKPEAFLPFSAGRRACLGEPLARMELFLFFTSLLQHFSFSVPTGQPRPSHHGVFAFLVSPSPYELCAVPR
Chain of ATP-dependent molecular chaperone HSP82 (C4YTQ8 whole entry): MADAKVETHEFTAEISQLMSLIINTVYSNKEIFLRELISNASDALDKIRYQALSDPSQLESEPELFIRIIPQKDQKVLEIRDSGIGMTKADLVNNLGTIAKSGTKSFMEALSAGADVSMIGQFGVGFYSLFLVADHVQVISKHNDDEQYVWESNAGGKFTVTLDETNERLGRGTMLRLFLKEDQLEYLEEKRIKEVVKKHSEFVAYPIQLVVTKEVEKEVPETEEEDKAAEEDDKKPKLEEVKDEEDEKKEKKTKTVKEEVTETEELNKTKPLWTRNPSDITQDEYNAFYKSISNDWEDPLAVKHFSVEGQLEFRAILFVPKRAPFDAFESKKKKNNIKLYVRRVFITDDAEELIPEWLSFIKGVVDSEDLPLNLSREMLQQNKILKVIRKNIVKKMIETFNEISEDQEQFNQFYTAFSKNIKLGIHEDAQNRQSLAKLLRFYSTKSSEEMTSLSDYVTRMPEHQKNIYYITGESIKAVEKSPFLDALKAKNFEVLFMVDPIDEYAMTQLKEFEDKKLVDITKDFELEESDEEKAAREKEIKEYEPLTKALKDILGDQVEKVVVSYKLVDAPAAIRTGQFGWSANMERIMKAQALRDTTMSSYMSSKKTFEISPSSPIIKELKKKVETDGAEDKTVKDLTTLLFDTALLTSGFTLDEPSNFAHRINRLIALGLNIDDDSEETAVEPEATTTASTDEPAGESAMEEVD
Chain of Cytochrome P450 2C19 (P33261 whole entry): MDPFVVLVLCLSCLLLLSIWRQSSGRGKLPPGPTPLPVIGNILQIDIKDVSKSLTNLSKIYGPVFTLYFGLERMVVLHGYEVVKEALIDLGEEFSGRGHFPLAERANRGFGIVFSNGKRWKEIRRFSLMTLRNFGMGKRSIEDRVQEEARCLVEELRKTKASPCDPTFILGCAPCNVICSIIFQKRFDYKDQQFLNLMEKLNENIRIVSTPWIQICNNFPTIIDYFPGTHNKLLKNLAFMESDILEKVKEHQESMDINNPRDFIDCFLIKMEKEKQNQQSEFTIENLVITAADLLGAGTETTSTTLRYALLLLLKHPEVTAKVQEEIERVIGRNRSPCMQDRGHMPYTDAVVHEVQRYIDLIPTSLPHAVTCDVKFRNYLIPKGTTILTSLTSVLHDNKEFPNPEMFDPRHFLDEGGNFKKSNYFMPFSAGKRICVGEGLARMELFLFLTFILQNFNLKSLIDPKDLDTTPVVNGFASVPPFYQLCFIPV
Chain of Phospholipase D2 (O14939 whole entry): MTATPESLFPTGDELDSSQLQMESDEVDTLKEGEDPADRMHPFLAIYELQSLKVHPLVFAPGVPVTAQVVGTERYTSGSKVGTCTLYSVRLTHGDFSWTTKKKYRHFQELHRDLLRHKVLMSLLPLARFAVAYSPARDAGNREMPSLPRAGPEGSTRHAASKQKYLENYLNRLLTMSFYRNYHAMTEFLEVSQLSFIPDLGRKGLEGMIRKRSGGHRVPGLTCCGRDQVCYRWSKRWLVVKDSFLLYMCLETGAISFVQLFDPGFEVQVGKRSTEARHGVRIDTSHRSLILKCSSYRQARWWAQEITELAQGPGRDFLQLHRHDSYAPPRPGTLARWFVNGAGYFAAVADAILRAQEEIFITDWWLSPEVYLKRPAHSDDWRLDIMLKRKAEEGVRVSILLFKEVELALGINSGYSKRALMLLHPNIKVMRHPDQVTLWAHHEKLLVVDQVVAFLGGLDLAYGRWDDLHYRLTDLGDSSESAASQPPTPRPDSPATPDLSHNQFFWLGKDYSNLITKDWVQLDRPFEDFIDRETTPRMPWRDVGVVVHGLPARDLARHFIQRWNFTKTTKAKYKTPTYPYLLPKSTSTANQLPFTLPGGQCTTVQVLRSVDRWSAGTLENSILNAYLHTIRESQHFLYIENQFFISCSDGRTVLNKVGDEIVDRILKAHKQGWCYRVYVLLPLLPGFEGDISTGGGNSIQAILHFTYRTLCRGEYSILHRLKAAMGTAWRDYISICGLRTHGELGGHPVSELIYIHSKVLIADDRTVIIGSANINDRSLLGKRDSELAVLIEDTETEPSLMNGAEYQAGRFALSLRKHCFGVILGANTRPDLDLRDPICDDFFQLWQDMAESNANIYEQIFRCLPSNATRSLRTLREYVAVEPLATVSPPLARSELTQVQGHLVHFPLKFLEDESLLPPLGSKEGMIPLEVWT

In the case of `O=c1oc(Cl)c(Cl)c2ccccc12`, the AC50 (Cytochrome P450 2C19) is reported as 25.1 µM (inconclusive), the AC50 [1] is reported as 2.82 µM (inconclusive) and the AC50 (Cytochrome P450 2D6) is reported as 31.6 µM (inconclusive).

With `CCC(=O)/C=C/C1C(C)=CCCC1(C)C` (configuration not stated) the AC50 [1] was 39.8 µM (inconclusive) and the AC50 (Cytochrome P450 3A4) was 31.6 µM (inconclusive).

With `C[C@@H](CN1CCC(n2c(=O)[nH]c3cc(I)ccc32)CC1)NC(=O)C1CC1c1ccccc1` (some centres not stated) the IC50 (Phospholipase D2) was 6.5 µM (active) and the IC50 (Phospholipase D1) was 0.021 µM (active).

With `COc1ccc(-[n+]2cc(-c3ccc(C)cc3)n3c2SCC3)cc1` the AC50 [2] was 2.91 µM (active), the IC50 [3] was > 80 µM (inactive) and the IC50 [4] was 7.65 µM (active). For the same compound, the EC50 [5] was 0.318 µM (active), the EC50 [6] was > 150 µM (inactive) and the EC50 [7] was 1.17 µM (active). The AC50 (INS1) was 1.12 µM (active), the EC50 [8] was > 150 µM (inactive) and the EC50 [9] was > 60 µM (not active). The EC50 [10] was > 180 µM (inactive).
